#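 GI50 = concentration required for 50% inhibition of growth. TGI is the concentration that stops growth completely.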
# What was measured:
# Test in all cases: NCI anticancer screen, dose series, 384-well format
# OVCAR-3 ovarian = tested on: OVCAR-3 ovarian
# HCC-2998 colon = tested on: HCC-2998 colon
# NCI-H322M lung = tested on: NCI-H322M lung
# NCI/ADR-RES ovarian = tested on: NCI/ADR-RES ovarian
# MALME-3M melanoma = tested on: MALME-3M melanoma
# NCI-H226 lung = tested on: NCI-H226 lung
# COLO 205 colon = tested on: COLO 205 colon
# UO-31 renal = tested on: UO-31 renal
# NCI-H23 lung = tested on: NCI-H23 lung
# UACC-62 melanoma = tested on: UACC-62 melanoma
# KM12 colon = tested on: KM12 colon
# BT-549 breast = tested on: BT-549 breast
# MDA-MB-231 breast = tested on: MDA-MB-231 breast
# NCI-H460 NSCLC = tested on: NCI-H460 NSCLC
# U251 glioblastoma = tested on: U251 glioblastoma
# SN12C renal = tested on: SN12C renal
# OVCAR-4 ovarian = tested on: OVCAR-4 ovarian
# RPMI-8226 leukemia = tested on: RPMI-8226 leukemia
# CCRF-CEM leukemia = tested on: CCRF-CEM leukemia
# RXF 393 renal = tested on: RXF 393 renal
# SR leukemia = tested on: SR leukemia
# SF-295 CNS = tested on: SF-295 CNS
# MOLT-4 leukemia = tested on: MOLT-4 leukemia
# SK-MEL-28 melanoma = tested on: SK-MEL-28 melanoma
# UACC-257 melanoma = tested on: UACC-257 melanoma
# SK-MEL-2 melanoma = tested on: SK-MEL-2 melanoma
# HOP-62 NSCLC = tested on: HOP-62 NSCLC
# NCI-H522 lung = tested on: NCI-H522 lung
# SK-OV-3 ovarian = tested on: SK-OV-3 ovarian
# HL-60(TB) leukemia = tested on: HL-60(TB) leukemia
# HT29 colon = tested on: HT29 colon
# HCT-15 colon = tested on: HCT-15 colon
# A498 renal = tested on: A498 renal
# SK-MEL-5 melanoma = tested on: SK-MEL-5 melanoma
# TK-10 renal = tested on: TK-10 renal
# LOX IMVI melanoma = tested on: LOX IMVI melanoma
# MDA-MB-435 melanoma = tested on: MDA-MB-435 melanoma
# OVCAR-8 ovarian = tested on: OVCAR-8 ovarian
# M14 melanoma = tested on: M14 melanoma
# SNB-19 CNS = tested on: SNB-19 CNS
# SF-539 CNS = tested on: SF-539 CNS
# 786-0 renal = tested on: 786-0 renal
# SF-268 CNS = tested on: SF-268 CNS
# MDA-MB-468 breast = tested on: MDA-MB-468 breast
# IGROV1 ovarian = tested on: IGROV1 ovarian
smiles,measurement,setting,value
COc1ncnn2ccc(-c3cnc4nc(C)n(Cc5nnc(C(C)F)o5)c4c3)c12 (stereo not given),GI50,OVCAR-3 ovarian,17.2 nM
same,TGI,OVCAR-3 ovarian,41.4 nM
same,GI50,HCC-2998 colon,41.1 nM
same,TGI,HCC-2998 colon,196 nM
same,GI50,NCI-H322M lung,82.2 nM
same,TGI,NCI-H322M lung,815 nM
same,GI50,NCI/ADR-RES ovarian,154 nM
same,TGI,NCI/ADR-RES ovarian,415 nM
same,GI50,MALME-3M melanoma,95.6 nM
same,TGI,MALME-3M melanoma,223 nM
same,GI50,NCI-H226 lung,117 nM
same,TGI,NCI-H226 lung,283 nM
same,GI50,COLO 205 colon,26.8 nM
same,TGI,COLO 205 colon,67.5 nM
same,GI50,UO-31 renal,103 nM
same,TGI,UO-31 renal,270 nM
same,GI50,NCI-H23 lung,19.7 nM
same,TGI,NCI-H23 lung,46.9 nM
same,GI50,UACC-62 melanoma,24.9 nM
same,TGI,UACC-62 melanoma,80.7 nM
same,GI50,KM12 colon,24.8 nM
same,TGI,KM12 colon,95.5 nM
same,GI50,BT-549 breast,16.9 nM
same,TGI,BT-549 breast,49.9 nM
same,GI50,MDA-MB-231 breast,77.9 nM
same,TGI,MDA-MB-231 breast,415 nM
same,GI50,NCI-H460 NSCLC,42.6 nM
same,TGI,NCI-H460 NSCLC,163 nM
same,GI50,U251 glioblastoma,43.2 nM
same,TGI,U251 glioblastoma,338 nM
same,GI50,SN12C renal,43.5 nM
same,TGI,SN12C renal,215 nM
same,GI50,OVCAR-4 ovarian,57.2 nM
same,TGI,OVCAR-4 ovarian,215 nM
same,GI50,RPMI-8226 leukemia,40.5 nM
same,TGI,RPMI-8226 leukemia,95.8 nM
same,GI50,CCRF-CEM leukemia,21.1 nM
same,TGI,CCRF-CEM leukemia,41.9 nM
same,GI50,RXF 393 renal,56 nM
same,TGI,RXF 393 renal,188 nM
same,GI50,SR leukemia,15.5 nM
same,TGI,SR leukemia,29.4 nM
same,GI50,SF-295 CNS,110 nM
same,TGI,SF-295 CNS,307 nM
same,GI50,MOLT-4 leukemia,18.5 nM
same,TGI,MOLT-4 leukemia,33.4 nM
same,GI50,SK-MEL-28 melanoma,51.9 nM
same,TGI,SK-MEL-28 melanoma,184 nM
same,GI50,UACC-257 melanoma,20.1 nM
same,TGI,UACC-257 melanoma,56.6 nM
same,GI50,SK-MEL-2 melanoma,29.4 nM
same,TGI,SK-MEL-2 melanoma,77.2 nM
same,GI50,HOP-62 NSCLC,27.5 nM
same,TGI,HOP-62 NSCLC,122 nM
same,GI50,NCI-H522 lung,14.8 nM
same,TGI,NCI-H522 lung,52 nM
same,GI50,SK-OV-3 ovarian,28.7 nM
same,TGI,SK-OV-3 ovarian,132 nM
same,GI50,HL-60(TB) leukemia,51.5 nM
same,TGI,HL-60(TB) leukemia,156 nM
same,GI50,HT29 colon,142 nM
same,TGI,HT29 colon,284 nM
same,GI50,HCT-15 colon,33 nM
same,TGI,HCT-15 colon,147 nM
same,GI50,A498 renal,42.6 nM
same,TGI,A498 renal,187 nM
same,GI50,SK-MEL-5 melanoma,15.4 nM
same,TGI,SK-MEL-5 melanoma,45 nM
same,GI50,TK-10 renal,44.7 nM
same,TGI,TK-10 renal,261 nM
same,GI50,LOX IMVI melanoma,58.3 nM
same,TGI,LOX IMVI melanoma,161 nM
same,GI50,MDA-MB-435 melanoma,67.3 nM
same,TGI,MDA-MB-435 melanoma,236 nM
same,GI50,OVCAR-8 ovarian,40.2 nM
same,TGI,OVCAR-8 ovarian,256 nM
same,GI50,M14 melanoma,185 nM
same,TGI,M14 melanoma,334 nM
same,GI50,SNB-19 CNS,37.1 nM
same,TGI,SNB-19 CNS,> 100000 nM
same,GI50,SF-539 CNS,126 nM
same,TGI,SF-539 CNS,286 nM
same,GI50,786-0 renal,116 nM
same,TGI,786-0 renal,252 nM
same,GI50,SF-268 CNS,133 nM
same,TGI,SF-268 CNS,400 nM
same,GI50,MDA-MB-468 breast,17.6 nM
same,TGI,MDA-MB-468 breast,43.4 nM
same,GI50,IGROV1 ovarian,26.5 nM
same,TGI,IGROV1 ovarian,135 nM

# Reference: PubChem BioAssay (NCI)
